Test results: the supplement of paper PMC10627819

What was measured:
S. pneumoniae D39V = assay: fitness (endpoint OD595 vs no drug) (fraction); higher = more growth
How it was run: (§1)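 Fitness is computed from the optical density at which cultures reach stationary phase, divided by the robust mean of no-drug control wells. Any value above 1 is set to 1. Cultures started at OD595 0.01 in 384-well plates with TSB, LB Lennox or CY at 37 °C, and OD595 was read every 30 min for 14 h against a first-reading background.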

S. aureus DSM 20231 = assay: as above
How it was run: as §1
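Further: OD595 on entry to stationary phase over no-drug wells; at most 1.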

CC(=O)Oc1ccccc1C(=O)O [Acetylsalicylic acid] + COc1ccc(C[C@H](N)C(=O)N[C@H]2[C@@H](O)[C@H](n3cnc4c(N(C)C)ncnc43)O[C@@H]2CO)cc1 [Puromycin]
fitness
Settings | partner 0.39 µg/mL | partner 0.78 µg/mL | partner 1 µg/mL | partner 1.56 µg/mL | partner 2 µg/mL | partner 4 µg/mL
S. aureus DSM 20231, first compound 250 µg/mL | 0.894 | 0.947 | – | 0.88 | – | –
S. aureus DSM 20231, first compound 500 µg/mL | 0.804 | 0.768 | – | 0.799 | – | –
S. pneumoniae D39V, first compound 250 µg/mL | – | – | ≥ 1 | – | 0.954 | 0.898
S. pneumoniae D39V, first compound 500 µg/mL | – | – | 0.915 | – | 0.935 | 0.836
S. pneumoniae D39V, first compound 1000 µg/mL | – | – | 0.889 | – | 0.815 | 0.622

fitness, S. aureus DSM 20231, one replicate
Settings | first compound 250 µg/mL | first compound 500 µg/mL | first compound 1000 µg/mL
partner 3.12 µg/mL | 0.84 | 0.791 | 0.0591
partner 6.24 µg/mL | 0.821 | 0.767 | 0.0807

CC(=O)Oc1ccccc1C(=O)O [Acetylsalicylic acid] + COc1cccc2c1C(=O)c1c(O)c3c(c(O)c1C2=O)C[C@@](O)(C(=O)CO)C[C@@H]3O[C@H]1C[C@H](N)[C@H](O)[C@H](C)O1 [Doxorubicin]
fitness
Settings | first compound 250 µg/mL | first compound 500 µg/mL | first compound 1000 µg/mL
S. aureus DSM 20231, partner 0.625 µg/mL | 0.835 | 0.759 | 0.607
S. aureus DSM 20231, partner 1.25 µg/mL | 0.798 | 0.725 | –
S. aureus DSM 20231, partner 2.5 µg/mL | 0.783 | 0.71 | 0.586
S. pneumoniae D39V, partner 0.25 µg/mL | 0.94 | 0.893 | 0.724
S. pneumoniae D39V, partner 0.5 µg/mL | 0.945 | 0.904 | 0.751
S. pneumoniae D39V, partner 1 µg/mL | 0.889 | 0.882 | 0.763

CC(=O)Oc1ccccc1C(=O)O [Acetylsalicylic acid] + C[C@@H]1O[C@@H]1P(=O)(O)O [Fosfomycin]
fitness
Settings | first compound 250 µg/mL | first compound 500 µg/mL | first compound 1000 µg/mL
S. aureus DSM 20231, partner 0.781 µg/mL | 0.621 | 0.619 | 0.51
S. aureus DSM 20231, partner 1.562 µg/mL | 0.537 | 0.546 | 0.438
S. aureus DSM 20231, partner 3.124 µg/mL | 0.487 | 0.452 | 0.283
S. pneumoniae D39V, partner 1.25 µg/mL | 0.989 | 0.955 | 0.862
S. pneumoniae D39V, partner 2.5 µg/mL | 0.939 | 0.939 | 0.82
S. pneumoniae D39V, partner 5 µg/mL | 0.831 | 0.88 | 0.791

CC(=O)Oc1ccccc1C(=O)O [Acetylsalicylic acid] + C[n+]1ccc(-c2cc[n+](C)cc2)cc1 [Paraquat]
fitness
Settings | partner 1.25 µg/mL | partner 1.5 µg/mL | partner 2.5 µg/mL | partner 3 µg/mL | partner 5 µg/mL | partner 6 µg/mL
S. aureus DSM 20231, first compound 250 µg/mL | 0.877 | – | 0.868 | – | 0.861 | –
S. aureus DSM 20231, first compound 500 µg/mL | 0.823 | – | 0.807 | – | 0.774 | –
S. pneumoniae D39V, first compound 250 µg/mL | – | 0.972 | – | 0.954 | – | 0.934
S. pneumoniae D39V, first compound 500 µg/mL | – | 0.969 | – | 0.938 | – | 0.872
S. pneumoniae D39V, first compound 1000 µg/mL | – | 0.916 | – | 0.873 | – | 0.772
